# Measurements reported in US7662826B2, “Pyrazolo [1,5-a] pyrimidine derivative and nad (p) h oxidase inhibitor containing the same” (Shionogi & Co., Ltd., priority 2002, dated 2010).
row,melting point,Structure (SMILES)
1,212 °C,O=C1CCN(c2ccccc2NC(=O)c2cnc3c(-c4cccc(Cl)c4)cnn3c2)CC1 [Compound B1]
2,215 to 217 °C,CNC1CCN(c2ccccc2NC(=O)c2cnc3c(-c4cccc(Cl)c4)cnn3c2)CC1 [Compound B3]
3,193 to 195 °C,CCNC1CCN(c2ccccc2NC(=O)c2cnc3c(-c4cccc(Cl)c4)cnn3c2)CC1 [Compound B5]
4,187 to 189 °C,CCCNC1CCN(c2ccccc2NC(=O)c2cnc3c(-c4cccc(Cl)c4)cnn3c2)CC1 [Compound B6]
5,191 to 192 °C,CCCCNC1CCN(c2ccccc2NC(=O)c2cnc3c(-c4cccc(Cl)c4)cnn3c2)CC1 [Compound B8]
6,206 to 208 °C,CC(C)NC1CCN(c2ccccc2NC(=O)c2cnc3c(-c4cccc(Cl)c4)cnn3c2)CC1 [Compound B9]
7,202 to 204 °C,CCC(C)NC1CCN(c2ccccc2NC(=O)c2cnc3c(-c4cccc(Cl)c4)cnn3c2)CC1 (stereo not shown) [Compound B11]
8,226 to 228 °C,CNC1CCN(c2ccccc2NC(=O)c2cnc3c(-c4ccc(Cl)cc4)cnn3c2)CC1 [Compound B16]
9,234 to 236 °C,CCNC1CCN(c2ccccc2NC(=O)c2cnc3c(-c4ccc(Cl)cc4)cnn3c2)CC1 [Compound B17]
10,246 to 247 °C,CC(C)NC1CCN(c2ccccc2NC(=O)c2cnc3c(-c4ccc(Cl)cc4)cnn3c2)CC1 [Compound B18]
11,235 to 237 °C,CCCNC1CCN(c2ccccc2NC(=O)c2cnc3c(-c4ccc(Cl)cc4)cnn3c2)CC1 [Compound B19]
12,229 to 230 °C,C=CCNC1CCN(c2ccccc2NC(=O)c2cnc3c(-c4ccc(Cl)cc4)cnn3c2)CC1 [Compound B20]
13,222 to 224 °C,CCCCNC1CCN(c2ccccc2NC(=O)c2cnc3c(-c4ccc(Cl)cc4)cnn3c2)CC1 [Compound B23]
14,256 to 261 °C,O=C(Nc1ccccc1N1CCC(O)CC1)c1cnc2c(-c3ccc(Cl)cc3)cnn2c1 [Compound B24]
15,134 to 136 °C,O=C(Nc1ccccc1N1CCC[C@H]1CNCCO)c1cnc2c(-c3ccc(Cl)cc3)cnn2c1 [Compound B25]
16,184 to 186 °C,N[C@@H]1CCN(c2ccccc2NC(=O)c2cnc3c(-c4ccc(Cl)cc4)cnn3c2)C1 [Compound B28]
17,203 to 204 °C,NC[C@@H]1CCCN1c1ccccc1NC(=O)c1cnc2c(-c3ccc(Cl)cc3)cnn2c1 [Compound B30]
18,137 to 140 °C,CNC1CCN(c2ccccc2NC(=O)Nc2cnc3c(-c4ccc(Cl)cc4)cnn3c2)CC1 [Compound B36]
19,155 to 157 °C,CCNC1CCN(c2ccccc2NC(=O)Nc2cnc3c(-c4ccc(Cl)cc4)cnn3c2)CC1 [Compound B38]
20,196 to 197 °C,O=C(NCc1ccccc1N1CCNCC1)Nc1cnc2c(-c3cccc(Cl)c3)cnn2c1 [Compound B40]
21,151 to 153 °C,CCCNC1CCN(c2ccccc2NC(=O)Nc2cnc3c(-c4ccc(Cl)cc4)cnn3c2)CC1 [Compound B41]
22,152 to 153 °C,C=CCNC1CCN(c2ccccc2NC(=O)Nc2cnc3c(-c4ccc(Cl)cc4)cnn3c2)CC1 [Compound B43]
23,117 to 128 °C (dec.),CNC1CCN(c2ccccc2NC(=O)Nc2cnc3c(-c4cccc(Cl)c4)cnn3c2)CC1 [Compound B55]
24,157 to 159 °C (dec.),CCNC1CCN(c2ccccc2NC(=O)Nc2cnc3c(-c4cccc(Cl)c4)cnn3c2)CC1 [Compound B58]
25,150 to 154 °C (dec.),C=CCNC1CCN(c2ccccc2NC(=O)Nc2cnc3c(-c4cccc(Cl)c4)cnn3c2)CC1 [Compound B59]
26,269 to 271 °C,O=C(Nc1cnc2c(-c3cccc(Cl)c3)cnn2c1)c1ccccc1N1CCNCC1 [Compound B165]

row,melting point,Structure (SMILES)
1,125 to 127 °C,O=C(Nc1ccccc1N1CC[C@@H](NCCO)C1)c1ccn2ncc(-c3cccc(Cl)c3)c2n1 [Compound B170]
2,124 to 125 °C,O=C(Nc1ccccc1N1CC[C@H](NCCO)C1)c1ccn2ncc(-c3cccc(Cl)c3)c2n1 [Compound B171]
3,151 to 152 °C,NCCN[C@@H]1CCN(c2ccccc2NC(=O)c2ccn3ncc(-c4cccc(Cl)c4)c3n2)C1.O=C(O)/C=C/C(=O)O [Compound B172]
4,160 to 162 °C,NCCN[C@H]1CCN(c2ccccc2NC(=O)c2ccn3ncc(-c4cccc(Cl)c4)c3n2)C1 [Compound B173]
5,168 to 170 °C,NC[C@H]1CCCN1c1ccccc1NC(=O)c1ccn2ncc(-c3cccc(Cl)c3)c2n1 [Compound B196]
6,118 to 121 °C,O=C(Nc1ccccc1N1CCC[C@@H]1CNCCO)c1ccn2ncc(-c3cccc(Cl)c3)c2n1 [Compound B198]
7,152 to 155 °C,CCCNC1CCN(c2ccccc2NC(=O)Nc2cnc3c(-c4cccc(Cl)c4)cnn3c2)CC1 [Compound B199]
8,> 300 °C,CC(C)NC1CCN(c2ccccc2NC(=O)Nc2cnc3c(-c4ccc(Cl)cc4)cnn3c2)CC1 [Compound B203]
9,97 to 98 °C,CNC[C@H]1CCCN1c1ccccc1NC(=O)c1ccn2ncc(-c3cccc(Cl)c3)c2n1 [Compound B215]
10,183 to 184 °C,O=C(Nc1cnc2c(-c3ccc(Cl)cc3)cnn2c1)Nc1ccccc1N1CCNCC1 [Compound B218]
11,229 to 231 °C,CCC(C)NC1CCN(c2ccccc2NC(=O)c2cnc3c(-c4ccc(Cl)cc4)cnn3c2)CC1 (stereo not shown) [Compound B243]
12,164 to 165 °C,O=C(Nc1ccccc1N1CC[C@@H](NCCO)C1)c1cnc2c(-c3ccc(Cl)cc3)cnn2c1 [Compound B245]
13,120 to 140 °C,O=C(Nc1cnc2c(-c3cccc(Cl)c3)cnn2c1)Nc1ccccc1N1CCNCC1 [Compound B249]
14,185 to 187 °C,O=C(NCc1ccccc1N1CCNCC1)Nc1cnc2c(-c3ccc(Cl)cc3)cnn2c1 [Compound B263]
15,236 to 238 °C,O=C(Nc1cnc2c(-c3ccc(Cl)cc3)cnn2c1)c1ccccc1N1CCNCC1 [Compound B277]
16,267 to 269 °C (dec.),O=C(Nc1ccc(N2CCNCC2)cc1)c1cnc2c(-c3ccc(Cl)cc3)cnn2c1 [Compound B280]
17,190 to 191 °C,Clc1cccc(-c2cnn3ccc(/C4=N/c5ccccc5N5CCCCC5CN4)nc23)c1 (stereo not shown) [Compound B292]
18,138 to 143 °C,CCCCNC1CCN(c2ccccc2NC(=O)Nc2cnc3c(-c4ccc(Cl)cc4)cnn3c2)CC1 [Compound B293]
19,211 to 212 °C,NCCC1CCCCN1c1ccccc1NC(=O)c1ccn2ncc(-c3cccc(Cl)c3)c2n1.O=C(O)/C=C/C(=O)O (stereo not shown) [Compound B313]
20,100 to 102 °C (dec.),COc1ccc(NC(=O)c2ccn3ncc(-c4cccc(Cl)c4)c3n2)cc1N1CCNCC1 [Compound B314]
21,159 to 160 °C,NCC1CCCCN1c1ccccc1NC(=O)c1ccn2ncc(-c3cccc(Cl)c3)c2n1 (stereo not shown) [Compound B316]
22,210 to 212 °C,COc1ccc(NC(=O)c2ccn3ncc(-c4ccc(Cl)cc4)c3n2)cc1N1CCNCC1 [Compound B317]
23,186 to 188 °C,NC[C@H]1CCCN1c1ccccc1NC(=O)c1ccn2ncc(-c3ccc(Cl)cc3)c2n1 [Compound B318]
24,216 to 217 °C,CCCNC1CCN(c2ccccc2NC(=O)C2=CNc3c(-c4ccc(Cl)cc4)cnn3C2)CC1 [Compound B319]
25,> 300 °C,CCC(C)NC1CCN(c2ccccc2NC(=O)Nc2cnc3c(-c4ccc(Cl)cc4)cnn3c2)CC1 (stereo not shown) [Compound B336]
26,190 to 192 °C,"O=C(NCc1ccccc1N1CCOCC1)c1ccn2nc(-c3ccccc3)cc2n1 [Example 12, N-(2-morpholinophenyl)methyl 2-phenyl-pyrazolo-[1,5-a]-pyrimidine-5-amide]"
